Assay results: patent US6914045B2, “Glycopeptide antibiotics” (Wyeth Holdings Corporation, priority 2001, dated 2005)
In brackets after ≈: the same amount, converted by molar mass.

Columns and labels:
Enterococcus sp. = assay: in vitro antibacterial evaluation, MIC by broth dilution; type: cell-based; settings: broth dilution, 18 hours at 35° C.
How it was run: (§1)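 Broth dilution per NCCLS standard M7-A2 in Muller-Hinton II […], with an inoculum of 5×10^5 CFU/mL and antibiotic spanning 64-0.06 μg/mL. The MIC is the lowest concentration that inhibits growth of the organism.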

Escherichia coli = assay: as above; type: cell-based; settings: 18 hours at 35° C.
How it was run: as §1

Staphylococcus sp. = assay: as above; type: cell-based; settings: broth dilution, 18 hours at 35° C.
How it was run: as §1

Streptococcus sp. = assay: as above; type: cell-based; settings: broth dilution, 18 hours at 35° C.
How it was run: as §1

[1] = test system: Enterococcus faecalis (GC 6189); assay: acute lethal infection in mice; type: in vivo; settings: female CD-1 mice, intraperitoneal challenge, intravenous 30 min. after infection, 7 day survival
How it was run: (§2)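 Mice (female CD-1, 20+/−2 gm) receive bacteria ip in broth or hog gastric mucin, then test agent iv after 30 min. Median effective dose is calculated from 7 day survival pooled across 3 tests.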

[2] = test system: Staphylococcus aureus-SMITH (GC 4543); assay: acute lethal infection in mice; type: in vivo; settings: acute lethal infection, female CD-1 mice, intraperitoneal challenge, intravenous 30 min. after infection, 7 day survival
How it was run: as §2

## CC(c1ccccc1)C1NC(=O)CNC(=O)C(CO)NC(=O)C(C(O)C2CNC(=N)N2C2OC(CO)C(O)C(O)C2O)NC(=O)C(C(O)C2CNC(=N)N2)NC(=O)C(Cc2ccc(OC3OC(CO)C(OC4OC5COC(CC6CCN(C(=O)OCc7ccccc7)CC6)OC5C(O)C4O)C(O)C3O)cc2)NC1=O (stereo not drawn) [Example 113, Cyclo[glycyl-β-methylphenylalanyl-O-[4-O-[4,6-O-[2-[1-[(phenylmethoxy)carbonyl]piperidin-4-yl]ethylidene]hexopyranosyl]hexopyranosyl]tyrosyl-3-(2-iminoimidazolidin-4-yl)seryl-3-(3-hexopyranosyl-2-iminoimidazolidin-4-yl)serylseryl]]
Enterococcus sp.; Enterococcus avium (GC 4558)
  MIC Enterococcus avium (GC 4558): 2 µg/mL (≈ 1.3 µM)
Enterococcus sp.; Enterococcus faecalis (ATCC 29212)
  MIC Enterococcus faecalis (ATCC 29212): 2 µg/mL (≈ 1.3 µM)
Enterococcus sp.; Enterococcus faecalis (GC 2242)
  MIC Enterococcus faecalis (GC 2242): 4 µg/mL (≈ 2.6 µM)
Enterococcus sp.; Enterococcus faecalis (GC 2691)
  MIC Enterococcus faecalis (GC 2691): 4 µg/mL (≈ 2.6 µM)
Enterococcus sp.; Enterococcus faecalis (GC 3059)
  MIC Enterococcus faecalis (GC 3059): 2 µg/mL (≈ 1.3 µM)
Enterococcus sp.; Enterococcus faecalis (GC 4552)
  MIC Enterococcus faecalis (GC 4552): 2 µg/mL (≈ 1.3 µM)
Enterococcus sp.; Enterococcus faecalis (GC 4553)
  MIC Enterococcus faecalis (GC 4553): 2 µg/mL (≈ 1.3 µM)
Enterococcus sp.; Enterococcus faecalis (GC 4554)
  MIC Enterococcus faecalis (GC 4554): 2 µg/mL (≈ 1.3 µM)
Enterococcus sp.; Enterococcus faecalis (GC 6189)
  MIC Enterococcus faecalis (GC 6189): 2 µg/mL (≈ 1.3 µM)
Enterococcus sp.; Enterococcus faecium (GC 2243)
  MIC Enterococcus faecium (GC 2243): 2 µg/mL (≈ 1.3 µM)
Enterococcus sp.; Enterococcus faecium (GC 4556)
  MIC Enterococcus faecium (GC 4556): 2 µg/mL (≈ 1.3 µM)
Enterococcus sp.; Enterococcus faecium (GC 4557)
  MIC Enterococcus faecium (GC 4557): 2 µg/mL (≈ 1.3 µM)
Enterococcus sp.; strain ATCC 29212
  MIC Enterococcus faecalis (ATCC 29212): 2 µg/mL (≈ 1.3 µM)
Enterococcus sp.; strain GC 2242
  MIC Enterococcus faecalis (GC 2242): 4 µg/mL (≈ 2.6 µM)
Enterococcus sp.; strain GC 2243
  MIC Enterococcus faecium (GC 2243): 2 µg/mL (≈ 1.3 µM)
Enterococcus sp.; strain GC 2691
  MIC Enterococcus faecalis (GC 2691): 4 µg/mL (≈ 2.6 µM)
Enterococcus sp.; strain GC 3059
  MIC Enterococcus faecalis (GC 3059): 2 µg/mL (≈ 1.3 µM)
Enterococcus sp.; strain GC 4552
  MIC Enterococcus faecalis (GC 4552): 2 µg/mL (≈ 1.3 µM)
Enterococcus sp.; strain GC 4553
  MIC Enterococcus faecalis (GC 4553): 2 µg/mL (≈ 1.3 µM)
Enterococcus sp.; strain GC 4554
  MIC Enterococcus faecalis (GC 4554): 2 µg/mL (≈ 1.3 µM)
Enterococcus sp.; strain GC 4556
  MIC Enterococcus faecium (GC 4556): 2 µg/mL (≈ 1.3 µM)
Enterococcus sp.; strain GC 4557
  MIC Enterococcus faecium (GC 4557): 2 µg/mL (≈ 1.3 µM)
Enterococcus sp.; strain GC 4558
  MIC Enterococcus avium (GC 4558): 2 µg/mL (≈ 1.3 µM)
Enterococcus sp.; strain GC 6189
  MIC Enterococcus faecalis (GC 6189): 2 µg/mL (≈ 1.3 µM)
Escherichia coli; strain ATCC 25922
  MIC Escherichia coli (ATCC 25922): 32 µg/mL (≈ 20.8 µM)
Escherichia coli; strain GC 4559
  MIC Escherichia coli (GC 4559): 32 µg/mL (≈ 20.8 µM)
Escherichia coli; strain GC 4560
  MIC Escherichia coli (GC 4560): 1 µg/mL (≈ 0.65 µM)
Staphylococcus sp.
  MIC Coagulase Negative Staphylococcus (GC 4547): 1 µg/mL (≈ 0.65 µM)
  MIC Coagulase Negative Staphylococcus (GC 4548): 0.5 µg/mL (≈ 0.325 µM)
  MIC Coagulase Negative Staphylococcus (GC 4549): 1 µg/mL (≈ 0.65 µM)
  MIC Coagulase Negative Staphylococcus (GC 4551): 1 µg/mL (≈ 0.65 µM)
  MIC Coagulase Negative Staphylococcus (GC 6257): 0.5 µg/mL (≈ 0.325 µM)
  MIC Staphylococcus aureus (ATCC 29213): 1 µg/mL (≈ 0.65 µM)
  MIC Staphylococcus aureus (GC 1131): 2 µg/mL (≈ 1.3 µM)
  MIC Staphylococcus aureus (GC 3051): 1 µg/mL (≈ 0.65 µM)
  MIC Staphylococcus aureus (GC 3053): 1 µg/mL (≈ 0.65 µM)
  MIC Staphylococcus aureus (GC 4541): 1 µg/mL (≈ 0.65 µM)
  MIC Staphylococcus aureus (GC 4542): 1 µg/mL (≈ 0.65 µM)
  MIC Staphylococcus aureus (GC 4544): 2 µg/mL (≈ 1.3 µM)
  MIC Staphylococcus aureus (GC 4545): 1 µg/mL (≈ 0.65 µM)
  MIC Staphylococcus aureus-SMITH (GC 4543): 1 µg/mL (≈ 0.65 µM)
  MIC Staphylococcus haemolyticus (GC 4546): 1 µg/mL (≈ 0.65 µM)
Staphylococcus sp.; inoculum 5×10^5 CFU/mL, strain GC 1131
  MIC Staphylococcus aureus (GC 1131): 2 µg/mL (≈ 1.3 µM)
Staphylococcus sp.; strain ATCC 29213
  MIC Staphylococcus aureus (ATCC 29213): 1 µg/mL (≈ 0.65 µM)
Staphylococcus sp.; strain GC 3051
  MIC Staphylococcus aureus (GC 3051): 1 µg/mL (≈ 0.65 µM)
Staphylococcus sp.; strain GC 3053
  MIC Staphylococcus aureus (GC 3053): 1 µg/mL (≈ 0.65 µM)
Staphylococcus sp.; strain GC 4541
  MIC Staphylococcus aureus (GC 4541): 1 µg/mL (≈ 0.65 µM)
Staphylococcus sp.; strain GC 4542
  MIC Staphylococcus aureus (GC 4542): 1 µg/mL (≈ 0.65 µM)
Staphylococcus sp.; strain GC 4544
  MIC Staphylococcus aureus (GC 4544): 2 µg/mL (≈ 1.3 µM)
Staphylococcus sp.; strain GC 4545
  MIC Staphylococcus aureus (GC 4545): 1 µg/mL (≈ 0.65 µM)
Staphylococcus sp.; strain GC 4546
  MIC Staphylococcus haemolyticus (GC 4546): 1 µg/mL (≈ 0.65 µM)
Staphylococcus sp.; strain GC 4547
  MIC Coagulase Negative Staphylococcus (GC 4547): 1 µg/mL (≈ 0.65 µM)
Staphylococcus sp.; strain GC 4548
  MIC Coagulase Negative Staphylococcus (GC 4548): 0.5 µg/mL (≈ 0.325 µM)
Staphylococcus sp.; strain GC 4549
  MIC Coagulase Negative Staphylococcus (GC 4549): 1 µg/mL (≈ 0.65 µM)
Staphylococcus sp.; strain GC 4551
  MIC Coagulase Negative Staphylococcus (GC 4551): 1 µg/mL (≈ 0.65 µM)
Staphylococcus sp.; strain GC 6257
  MIC Coagulase Negative Staphylococcus (GC 6257): 0.5 µg/mL (≈ 0.325 µM)
Staphylococcus sp.; strain SMITH GC 4543
  MIC Staphylococcus aureus-SMITH (GC 4543): 1 µg/mL (≈ 0.65 µM)
Streptococcus sp.; Streptococcus agalactiae (GC 4564)
  MIC Streptococcus agalactiae (GC 4564): 0.12 µg/mL (≈ 0.078 µM)
Streptococcus sp.; Streptococcus pneumoniae (ATCC 6301)
  MIC Streptococcus pneumoniae (ATCC 6301): <0.06 µg/mL
Streptococcus sp.; Streptococcus pneumoniae (GC 1894)
  MIC Streptococcus pneumoniae (GC 1894): <0.06 µg/mL
Streptococcus sp.; Streptococcus pneumoniae (GC 4565)
  MIC Streptococcus pneumoniae (GC 4565): <0.06 µg/mL
Streptococcus sp.; Streptococcus pyogenes (GC 4563)
  MIC Streptococcus pyogenes (GC 4563): <0.06 µg/mL
Streptococcus sp.; strain ATCC 6301
  MIC Streptococcus pneumoniae (ATCC 6301): <0.06 µg/mL
Streptococcus sp.; strain GC 1894
  MIC Streptococcus pneumoniae (GC 1894): <0.06 µg/mL
Streptococcus sp.; strain GC 4563
  MIC Streptococcus pyogenes (GC 4563): <0.06 µg/mL
Streptococcus sp.; strain GC 4564
  MIC Streptococcus agalactiae (GC 4564): 0.12 µg/mL (≈ 0.078 µM)
Streptococcus sp.; strain GC 4565
  MIC Streptococcus pneumoniae (GC 4565): <0.06 µg/mL
[1]
  median effective dose (ED50), Enterococcus faecalis (GC 6189): 1.04 mg/kg
[2]
  median effective dose (ED50), Staphylococcus aureus-SMITH (GC 4543): 0.26 mg/kg
